System: Pistacia atlantica x P. intergerrina plants
Test: In vitro initiation and multiplication of pistachio on solid medium
Assay type: cell-based
Method: Fully developed pistachio plants were cut into single-node explants, shoot tips, basal (bottom) parts of plants with multiple buds, and cultured on different agar-solidified culture media under standard tissue culture conditions (16 h light photoperiod, cool white fluorescent lights at 80-100 μmol/m^2/s light intensity, 24° C.).
Culture vessels (baby food jars) with ventilated lids are used in all experiments: 1-3 explants per 1 vessel, 12 vessels per each experimental medium, 40 ml of medium in each vessel. The explants are subcultured every 30 days, photographed every week, and observed daily.
The culture media differed in composition of major macronutrients (e.g., MS vs. WPM vs. DKW), individual elements (calcium, magnesium, phosphorus, zinc copper, boron, etc.), as well as in type and concentration of plant growth regulators (PGRs).
The compositions of these media are presented in FIG. 38, and their key advantages are based on data presented below.
Because the type and dosage of PGRs are usually the key factors controlling the morphogenetic response of plant cells in vitro, the main work was focused on testing various concentrations of cytokinins or cytokinin-like compounds (TDZ, 2iP, BA, meta-Topolin, ZR), alone or in combination with auxins (NAA, IAA, IBA), to induce organogenesis and high frequency multiplication in Pistacia atlantica x P. intergerrina. In the absence of PGRs (i.e., on hormone-free media), the plant growth was very poor and the culture gradually died within several weeks. In contrast, the culture media with 1-3 mg/l meta-Topolin, alone or in combination with 0.02-1 mg/l NAA or IBA, provided the highest rate of shoot organogenesis with the fastest response: each explant formed multiple meristematic buds, and the first axillary shoots appeared as early as 3 days after the explants were placed on the media. […] The multiplication rate of pistachio plants cultured on BOO3, BOO6, BOO4, and BOO7 media was 2-7 times every 30 days. […]

[1] = 1-3 mg/l meta-Topolin, alone or in combination with 0.02-1 mg/l NAA or IBA

C=C1C[C@]23C[C@@]1(O)CC[C@H]2[C@@]12C=C[C@H](O)[C@@](C)(C(=O)O1)[C@H]2[C@@H]3C(=O)O [GA3, gibberellic acid]
shoot development from dormant buds of plant bases (2 mg/l of GA3 added into the media): induced shoot development

Oc1cccc(CNc2ncnc3[nH]cnc23)c1 [meta-Topolin, 6-(3-hydroxybenzylamino)-purine]
first axillary shoots appeared after the explants were placed on the media [1]: ≥ 3 days | rate of shoot organogenesis [1]: highest
